# Measurements: paper PMC9104108, “Purification and Identification of Novel Myeloperoxidase Inhibitory Antioxidant Peptides from Tuna (Thunnas albacares) Protein Hydrolysates” (Molecules, 2022)
# Where no end group is shown, it is not given here.
# Experiments:
# [1] = biological target: T1, MPO (Homo sapiens, UniProt P05164); assay: MPO inhibitor screening assay kit, chlorination assay; assay type: biochemical; details: APF substrate, synthesized peptides
# T1 construct: purchased Abnova, Taiwan
# T1 sequence (P05164 49-745): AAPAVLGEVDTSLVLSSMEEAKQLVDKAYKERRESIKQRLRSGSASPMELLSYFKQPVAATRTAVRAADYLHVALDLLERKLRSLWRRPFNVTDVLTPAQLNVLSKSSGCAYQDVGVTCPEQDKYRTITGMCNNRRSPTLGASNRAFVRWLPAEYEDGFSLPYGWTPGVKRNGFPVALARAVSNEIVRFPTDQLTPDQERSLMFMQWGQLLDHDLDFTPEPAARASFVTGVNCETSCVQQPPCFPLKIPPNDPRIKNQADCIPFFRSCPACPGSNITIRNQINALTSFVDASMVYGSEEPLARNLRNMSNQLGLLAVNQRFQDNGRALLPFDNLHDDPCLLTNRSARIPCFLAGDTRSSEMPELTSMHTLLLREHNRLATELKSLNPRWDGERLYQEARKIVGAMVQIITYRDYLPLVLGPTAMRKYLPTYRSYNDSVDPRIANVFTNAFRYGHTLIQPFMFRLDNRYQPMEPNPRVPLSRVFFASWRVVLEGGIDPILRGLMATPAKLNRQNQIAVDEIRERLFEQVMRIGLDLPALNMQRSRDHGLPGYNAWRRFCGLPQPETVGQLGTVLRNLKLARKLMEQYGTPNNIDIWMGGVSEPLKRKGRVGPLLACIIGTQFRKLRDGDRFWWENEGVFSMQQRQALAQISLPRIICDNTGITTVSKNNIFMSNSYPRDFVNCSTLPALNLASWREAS
# Excerpt: (§1) The inhibitory effect of peptides on MPO was estimated using an MPO inhibitor screening assay kit (Abnova, Taiwan), which was used to assess in both the peroxidation and chlorination activities of MPO. Peroxidation assay utilizes the peroxidase component of MPO. During the reaction, hydrogen peroxide reacts with 10-acetyl-3,7-dihydroxyphenoxazine (ADHP) to yield resorufin, a highly fluorescent compound. The chlorination assay utilizes non-fluorescent 2-[6-(4-aminophenoxy)-3-oxo-3H-xanthen-9-yl]-benzoic acid (APF), which is selectively cleaved by hypochlorite to produce fluorescein. The 4-aminobenzhydrazide was used as positive control. The MPO inhibitory activity was determined according to the kit instructions.
# [2] = biological target: T1, MPO; assay: MPO inhibitor screening assay kit, peroxidation assay; assay type: biochemical; details: ADHP substrate, synthesized peptides
# Excerpt: as §1
Substance,IC50 [1],IC50 [2]
DASHGHSG,> 500 µM,> 500 µM
DVSDLDAD,296 µM,> 500 µM
GDAFDKA [GDAFDKA],> 500 µM,> 500 µM

# Next, values leading:
IC50 [1],IC50 [2],Substance
32.3 µM,17.9 µM,ACGSDGK [ACGSDGK]
122 µM,> 500 µM,GELALKD [GELALKD]
108 µM,40.3 µM,KFCSGHA [KFCSGHA]
